Entries after “also recorded” stand apart in the source; their conditions may differ.
Assays:
Type in all cases: cell-based, human
[1] = test system: OVCAR5 CT45 expressing cells; test: Proliferation with increasing concentrations of carboplatin; settings: CT45 expressing cells treated with carboplatin
Procedure: FIG. 8A-B. CT45 sensitizes cancer cells to carboplatin. a, Western blot of CT45 expression in ovarian cancer cell lines transduced with a CT45A5 lentivirus. b, Proliferation of OVCAR5 control (V5) or CT45 expressing cells with increasing concentrations of carboplatin.
FIG. 19A-F. CT45 sensitizes cancer cells to carboplatin. a, MTT of SKOV3ip1 cells with or without 500 nM DAC treated with increasing doses of carboplatin. Cells were pretreated with 500 nM DAC for 72 hr then cultured for 4 days and treated with carboplatin on day 7. The MTT was performed after 72 hr with carboplatin treatment. b, Western blot of CT45 expression in ovarian cancer cell lines transduced with a CT45A5 lentivirus. c, Proliferation of OVCAR5 control (V5) or CT45 expressing cells with increasing concentrations of carboplatin. d, Cell cycle analysis of OVCAR5 control (V5) or CT45 expressing cells stained with propidium iodide. e, Clonogenic survival assay of the ovarian cancer cell line OVKATE stably overexpressing CT45 or control. Dots represent mean values from three independent experiments. Error bars show s.e.m. for each group. f, Interaction proteomics screen in the ovarian cancer cell line COV318 stably over-expressing V5-tagged CT45. Protein enrichment (t-test difference) is calculated over the corresponding control cell line (V5 tag alone) and plotted against the t-test p-value (−log10). […]

[2] = test system: chromatin of OVCAR5-V5-CT45 and OVCAR5-V5 cells; test: Micrococcal nuclease (MNase) assay; settings: after five days, vector control and CT45 overexpressing cell line
Procedure: Chromatin relaxation was assayed using the micrococcal nuclease (MNase) assay as previously described, with a few modifications. Briefly, nuclei from 1E6 cells were extracted with 300 μl ice-cold lysis buffer (10 mM Tris-HCl (pH 7.5), 10 mM NaCl, 3 mM MgCl2 and 0.4% IGPAL-CA-630) on ice for 5 min. After centrifugation (2,000 g for 5 min at 4° C.), nuclei were washed two times in lysis buffer and one time in 500 μl digestion buffer (0.32M sucrose, 50 mM Tris-HCl (pH7.5), 4 mM MgCl2, 1 mM CaCl2). Nuclei were then digested in digestion buffer with 50 gel units MNase (NEB) for 9 min at 27° C. in a final volume of 100 μl. The reaction was stopped by adding a final concentration of 1% SDS and 15 mM EGTA. Genomic DNA was purified and separated by gel electrophoresis (1.2% agarose).

[3] = test system: KAP-1 Ser824 phosphorylation; test: KAP-1 Ser824 phosphorylation (western blot, immunofluorescence); settings: carboplatin 5 μM
Procedure: Cells were treated with indicated drugs for 3 days and then media was changed. On indicated day of collection, both adherent and non-adherent cells were collected in RIPA buffer (25 mM Tris-HCl pH 7.6, 150 mM NaCl, 1% NP-40, 0.5% sodium deoxycholate, 0.1% SDS) supplemented with protease inhibitor cocktail (Thermo Scientific) and phosphatase inhibitor cocktail (Sigma). Lysates were incubated for 30 min on ice, sonicated and cleared by centrifugation (15 min, 14 000 rpm, 4° C.). The quantity of protein was determined by BCA reagent (Pierce). The extracts were analyzed by SDS-PAGE on a 4-20% gradient gel (Bio-Rad).
Cells were treated with 0 or 5 μM carboplatin on glass chamber slides. After 72 hr, media was changed. At designated timepoints, slides were fixed for 10 min at room temperature with 4% paraformaldehyde, cells were washed and permeabilized with PBS/0.1% Triton-X for 15 min and then blocked for 1 hr in blocking buffer (PBS/0.1% Triton-X/0.05% BSA/0.05% goat serum). Cells were washed three times and then were then incubated with primary antibody overnight diluted in blocking buffer at 4° C. Following three washes, cells were incubated with secondary antibody (diluted in blocking buffer) for 1 hr at room temperature and then with Hoechst 33342 for 2 min. Slides were mounted with ProLong Gold Antifade. […] A minimum of 100 cells/sample were analyzed. […]

`N.N.O=C([O-])C1(C(=O)[O-])CCC1.[Pt+2]` [carboplatin] was tested, and the proliferation [1] was “significantly reduced; also recorded: reduced proliferation”, the chromatin relaxation [2] was “induced global chromatin relaxation” and the “time of peak of phosphorylated KAP-1” value ([3]; both cell lines) was 3 days. For the same compound, the “phosphorylation of KAP-1 at Ser824” value [3] was “induced phosphorylation”.

— patent publication US12173042B2, “Methods of treating cancers with CT45 targeted therapies” (The University of Chicago, priority 2016, dated 2024)
